Where no end group is shown, it is not given here. MBP = maltose-binding protein; HA = HA epitope tag
What was measured:
[1] = test system: MBP:FUS (full-length FUS droplets) / Kapβ2; assay: Turbidity assay of FUS droplet formation (OD 395 nm); assay type: biochemical; conditions: equimolar poly-dipeptide and Kapβ2 (8 μM)
Kapβ2 [2] = assay: Pull-down (on-column) binding assay, Kapβ2; conditions: purified recombinant proteins, 20 mM HEPES pH 7.4, 150 mM NaCl, equal molar, 20–30 min
Text: (§1) Unbound proteins were washed three times with the buffer.

MBP = conditions: GST:PR18 on beads
Protocol: (§2) Four micrograms of GST proteins were immobilized on 30 μL of beads. […] Unbound proteins were washed three times with the buffer. Bound proteins and unbound proteins were separated by SDS-polyacrylamide gel electrophoresis and stained with Coomassie Brilliant Blue.

EGFP = conditions: GST:PR18 on beads
Protocol: as §2

Lysozyme = assay: Pull-down binding assay, Lysozyme control; conditions: GST:PR18 on beads
Text: as §1

BSA = assay: Pull-down binding assay, BSA control; conditions: GST:PR18 on beads
Text: as §1

endogenous Kapβ2 = assay: Immunoprecipitation from HeLa cells; assay type: binding; conditions: expressed in HeLa cells; cytosol extract, Streptavidin Mag Sepharose
Protocol: The pcDNA5/FRT/TO-HA:SBP plasmid was generated by inserting the PCR-amplified HA:SBP sequence into the pcDNA5/FRT/TO vector (Thermo Fisher Scientific) between the HindIII and BamHI sites. The HA:SBP:GFP:PR20:HA plasmid was constructed by ligating the GFP:PR20:HA sequence into the pcDNA5/FRT/TO-HA-SBP between the EcoRV and XhoI sites. The HA:SBP:Kapβ2 plasmid was constructed by ligating the Kapβ2 sequence into the pcDNA5/FRT/TO-HA:SBP between the BamHI and NotI sites. HeLa cells were cultured in Dulbecco’s modified Eagle medium/10% fetal bovine serum at 37 °C with 5% CO2. Cells were transfected with plasmids using Lipofectamine 3000 (Thermo Fisher Scientific) according to the manufacturer’s instructions. HeLa cytosol extracts were prepared by Cytoplasmic Extraction buffer (CE; 10 mM HEPES pH 7.9, 60 mM KCl, 1 mM EDTA, 0.075% NP40, 1 mM DTT, and cOmplete™ EDTA-free protease inhibitor [Sigma-Aldrich]) for 10 min on ice and then separated from nuclear by centrifugation at 500 × g for 10 min. The resultant extracts were cleared by centrifugation at 20,400 × g for 10 min. The supernatant containing the HeLa cytosol extracts were mixed with the Streptavidin Mag Sepharose (GE Healthcare) and rotated at 4 °C overnight. The beads were finally washed five times with CE buffer. The anti-Kapβ2 (sc-166127, 1 : 1000) antibody was obtained from Santa Cruz Biotechnology. […]

Kapβ2 [3] = assay: Isothermal titration calorimetry; assay type: binding; conditions: ITC, Supplementary Table 1 (not shown)
Protocol: ITC experiments were performed with a Malvern iTC200 calorimeter (Malvern Instruments). […] ITC experiments were performed at 25 °C with 19 rounds of 2 μL injections. Data were analyzed using Origin software.

Importinβ1 = assay: Pull-down binding assay, GST:Importinβ1; conditions: GST:Importinβ1 on beads
Text: as §1

Kapβ2 [4] = assay: Analytical ultracentrifugation; assay type: binding; conditions: 28 µM each, 25 °C, 20 mM HEPES pH 7.4, 150 mM NaCl
Protocol: AUC measurements were conducted with ProteomeLab XL-I (Beckman Coulter). […] The solutions were filled in 1.5 mm path-length titanium cells (Nanolytics). The measurements were performed with Rayleigh-interference optics at rotor speed of 125,000 × g (at 70 mm radius). The temperature was set at 25 °C. The weight concentration distribution as a function of sedimentation coefficient c(s20,w) and frictional ratio f/f0 were computed with SEDFIT[49] and Igor Pro software. The sedimentation coefficient was normalized to be the value at 20 °C in pure water s20,w. The molecular weight M was calculated with the corresponding peak value of s20,w and f/f0[49].

Importinα = assay: Pull-down binding assay, GST:Importinα; conditions: GST:Importinα on beads
Text: as §1

## GA20
[1]
  Inhibition of the ability of Kapβ2 to melt FUS droplets (turbidity): did not

## GST:PR18: Glutathione S-transferase fusion of PR18 (PRPRPRPRPRPRPRPRPRPRPRPRPRPRPRPRPRPR; also: GST fusion, end not given here)
Kapβ2 [2]
  Binding to Kapβ2 (pull-down): bound Kapβ2
MBP
  Binding to MBP (pull-down): no interaction
EGFP
  Binding to EGFP (pull-down): no interaction
Lysozyme
  Binding to Lysozyme (pull-down): no interaction
BSA
  Binding to BSA (pull-down): no interaction

## HA:SBP:GFP:PR20:HA: PR20 fusion expressed from plasmid in HeLa cells ({HA-SBP-GFP}-PRPRPRPRPRPRPRPRPRPRPRPRPRPRPRPRPRPRPRPR-{HA}; not fully specified)
Endogenous Kapβ2
  Co-immunoprecipitation of endogenous Kapβ2: interaction between endogenous Kapβ2 and HA:SBP:GFP:PR20:HA

## MBP:PR8: maltose-binding protein fusion of 8 repeats of Pro-Arg ({MBP}-PRPRPRPRPRPRPRPR)
Kapβ2 [2]
  Binding to Kapβ2 (pull-down): did not

## MBP:PR18: maltose-binding protein fusion of 18 repeats of Pro-Arg (PRPRPRPRPRPRPRPRPRPRPRPRPRPRPRPRPRPR; also: MBP fusion, end not given here)
Kapβ2 [2]
  Binding to Kapβ2 (pull-down): bound Kapβ2
Kapβ2 [3]
  Relative binding strength to Kapβ2 vs full-length FUS: bound Kapβ2 more strongly than full-length FUS does
Importinβ1
  Binding to Importinβ1 (pull-down): interactions
Kapβ2 [4]
  Complex formation with Kapβ2 (AUC): complex formation
Importinα
  Binding to Importinα (pull-down): interactions

— publication PMC8421406, “C9orf72-derived arginine-rich poly-dipeptides impede phase modifiers” (Nature Communications, 2021)
